Assay results reported in US20260049104A1, “PEPTIDES WITH ANTIMICROBIAL PROPERTIES” (priority 2022, published 2026).
Converted amounts (≈) assume the structure as drawn. Read-outs that look alike come from different tables or passages of the source.

Legend:
[1] = test system: E. coli M6
Description: Female C57BL/6NTac mice aged 6-8 weeks were acquired from InVivos Pte Ltd (Singapore, Singapore). Solutions for injections were prepared fresh in pharmaceutical grade saline and filter-sterilized. Murine peritonitis model was established according to literature. Briefly, healthy mice were rendered neutropenic by administering i.p. injection (0.5 mL) of cyclophosphamide on day −4 (150 mg/kg) and day −1 (100 mg/kg). On day 0, mice were infected with E. coli M6 (10^9 CFU/mL) through i.p. injection (0.1 mL). […] At 2 h post-treatment, mice were humanely euthanized by carbon dioxide asphyxiation and cervical dislocation. Sterile PBS (3 mL) was injected into the peritoneal cavity, followed by abdominal massage and collection of peritoneal fluid (1-2 mL). Blood (0.3-0.5 mL) was collected through cardiac puncture. Liver, spleen, and kidney were surgically removed and stored in 0.1% Triton X-100 (in PBS). Tissue homogenization was performed using gentleMACS dissociator (Miltenyi Biotec, Germany) by following a published protocol. Cell aggregates were removed using a 30 μm mesh MACS SmartStrainer (Miltenyi Biotec). Blood, peritoneal fluid, and tissue homogenates were plated on LB agar and incubated overnight for colony counting.

[2] = test system: E. coli M6; conditions: E. coli M6, over 24 h
Description: Peptides stock solutions were diluted into MHB to desired concentrations. Bacteria culture in mid-log phase was diluted into MHB to yield 10^6 CFU/mL. The mixture was incubated at 37° C. with shaking. At each time point, 10 μL of the sample was drawn out and subjected to ten-fold serial dilution. 20 μL of relevant dilutions was dropped onto MHA plate using the drop plate method. The plate was incubated for 18-20 h at 37° C. Colony number was counted, and used for calculating the CFU/mL according to the equation:
CFU/mL=Colony count×50×dilution factor

[3] = test system: Acinetobacter baumannii
Description: (§1) MIC screening of the peptides against a panel of ATCC and clinical strains was performed using broth microdilution method.^1 Briefly, peptides stock solutions in DMSO (0.1/G TFA) were diluted into Mueller Hinton Broth (MHB), followed by two-fold serial dilution in a 96-well plate. Bacteria culture in mid-log phase was diluted into MHB to yield […] colony-forming units (CFU)/mL. Equal volume of the starting inoculum was added to the peptide samples, then incubated for 18-20 h (37° C., 120 rpm). OD600 of the samples was then measured using Tecan Infinite M200 (TECAN, Männedorf, Switzerland). MIC is defined as the lowest peptide concentration to achieve more than 90% reduction in OD600 relative to the drug-free control. The experiments were repeated three times. Colistin-resistant clinical isolates are a kind gift from Dr. Jeanette Koh (National University Hospital, Singapore). Multidrug-resistant clinical isolates are a kind gift from Dr. Lakshminarayanan Rajamani (Singapore Eye Research Institute, Singapore).
(§2) Kanamycin and ampicillin were used as antibacterial control agents. […] Then, sequential 2-fold serial dilutions of the mix were diluted in 50 μL MH broth and 50 μL cell cultures were added to wells. […] All assays were carried out in triplicate.

[4] = test system: Escherichia coli
Description: as §1, §2

[5] = test system: Enterobacter cloacae
Description: as §1, §2

[6] = test system: Staphylococcus aureus
Description: as §1, §2

[7] = test system: Klebsiella pneumoniae
Description: as §1, §2

[8] = test system: Pseudomonas aeruginosa; type: cell-based
From the text: (§3) The experiments were repeated three times.

[9] = test system: Bacillus subtilis; type: cell-based; conditions: Bacillus subtilis ATCC 6633
From the text: as §3

[10] = test system: Morganella morganii; type: cell-based
From the text: as §3

[11] = test system: Enterobacteriaceae
Description: as §1

[12] = test system: Salmonella typhimurium; conditions: Salmonella typhimurium ATCC 14028
Description: as §1

[13] = test system: Salmonella entereditis; conditions: Salmonella entereditis ATCC 13076
Description: as §1

[14] = test system: Shigella flexneri; conditions: Shigella flexneri M90T
Description: as §1

[15] = test system: Bacillus cereus; conditions: Bacillus cereus ATCC 11778
Description: as §1

[16] = test system: HepG2 human cells
[17] = test system: E. coli M6; remark: listed apart in the source
Description: Resistance development of E. coli M6 against xenorceptide A2 was assessed by serial passaging of the bacteria in broth containing subinhibitory concentrations of the peptide. In brief, bacteria culture at mid-log phase was diluted to 10^5-10^6 CFU/mL in MHB containing 0.25×, 0.5×, 1×, 2×, and 4×MIC of the peptide. […] A new set of peptide concentration range was added to the cultures based on the latest MIC. This process was repeated over 14 days for three independent starting cultures.

[18] = 50 mg/kg single i.p. dose, 5 h post-treatment, neutropenic mice infected with E. coli M6
[19] = E. coli M6, sub-inhibitory concentrations, over two weeks

CC(C)[C@@H]1NC(=O)[C@@H](N)Cc2c[nH]c3cc(ccc23)[C@H](C(N)=O)[C@@H](C(=O)N[C@@H](C)C(=O)N[C@H]2Cc3cccc(c3)[C@H](CCNC(=N)N)[C@@H](C(=O)N[C@H]3Cc4c[nH]c5cc(ccc45)[C@H](CCCN)[C@@H](C(=O)N[C@@H](CO)C(=O)N[C@@H](Cc4ccccc4)C(=O)O)NC(=O)[C@H](CO)NC3=O)NC(=O)[C@H](C)NC2=O)NC1=O [xenorceptide A2]
decrease in colony count relative to saline control, blood [1, 18]: 7 log | decrease in colony count relative to saline control, liver [1, 18]: 4 log | decrease in colony count relative to saline control, peritoneal fluid [1, 18]: 6 log | reduction in bacteria burden, kidney [1, 18]: 2 log | reduction in bacteria burden, spleen [1, 18]: 2 log | in vivo efficacy compared with colistin ([1]; both at 5 mg/kg, single i.p. dose): comparable efficacy to colistin | bactericidal effect: reduction in bacteria count ([2]; at 8×MIC): 3 log | bactericidal effect: reduction in bacteria count ([2]; at both 4× and 8×MIC): 3 log | MIC ([3]; Acinetobacter baumannii ACBA1001): 32 µg/mL (≈ 21.4 µM) | MIC ([3]; Acinetobacter baumannii ACBA1002): 32 µg/mL (≈ 21.4 µM) | MIC ([3]; Acinetobacter baumannii ACBA1003): 32 µg/mL (≈ 21.4 µM) | MIC ([3]; Acinetobacter baumannii ACBA1004): 64 µg/mL (≈ 42.9 µM) | MIC ([3]; Acinetobacter baumannii ATCC 19606): >64 µg/mL | MIC ([4]; Escherichia coli ATCC 25922): 4 µg/mL (≈ 2.68 µM) | MIC ([4]; Escherichia coli CRE1006, carbapenem-resistant clinical isolate): 4 µg/mL (≈ 2.68 µM) | MIC ([4]; Escherichia coli M6, carbapenem- and colistin-resistant clinical isolate): 8 µg/mL (≈ 5.36 µM) | MIC ([4]; Escherichia coli M10, carbapenem- and colistin-resistant clinical isolate): 4 µg/mL (≈ 2.68 µM) | MIC ([4]; Escherichia coli M11, carbapenem- and colistin-resistant clinical isolate): 4 µg/mL (≈ 2.68 µM) | MIC ([5]; Enterobacter cloacae CRE1010): 4 µg/mL (≈ 2.68 µM) | MIC ([5]; Enterobacter cloacae CRE1014): 16 µg/mL (≈ 10.7 µM) | MIC ([5]; Enterobacter cloacae CRE1015): 32 µg/mL (≈ 21.4 µM) | MIC ([5]; Enterobacter cloacae CRE1016): 16 µg/mL (≈ 10.7 µM) | MIC ([5]; Enterobacter cloacae CRE1017): 32 µg/mL (≈ 21.4 µM) | MIC ([6]; Staphylococcus aureus ATCC 29737): >64 µg/mL | MIC ([6]; Staphylococcus aureus ATCC 43300): >64 µg/mL | MIC ([7]; Klebsiella pneumoniae ATCC 700603): 8 µg/mL (≈ 5.36 µM) | MIC ([7]; Klebsiella pneumoniae CRE 1007): 8 µg/mL (≈ 5.36 µM) | MIC ([7]; Klebsiella pneumoniae CRE1008): 8 µg/mL (≈ 5.36 µM) | MIC ([7]; Klebsiella pneumoniae CRE1011): 8 µg/mL (≈ 5.36 µM) | MIC ([7]; Klebsiella pneumoniae CRE1012): 8 µg/mL (≈ 5.36 µM) | MIC ([8]; Pseudomonas aeruginosa ATCC 9027): 64 µg/mL (≈ 42.9 µM) | MIC ([8]; Pseudomonas aeruginosa DM4150R): 64 µg/mL (≈ 42.9 µM) | MIC ([8]; Pseudomonas aeruginosa DM23376): >64 µg/mL | MIC ([8]; Pseudomonas aeruginosa DR4877/07): 64 µg/mL (≈ 42.9 µM) | MIC ([8]; Pseudomonas aeruginosa DR5790/07): 64 µg/mL (≈ 42.9 µM) | MIC [9]: >64 µg/mL | MIC ([10]; Morganella morganii ATCC 25830): 32 µg/mL (≈ 21.4 µM) | MIC ([10]; Morganella morganii CRE1001): 32 µg/mL (≈ 21.4 µM) | potency compared with dynobactin and darobactin ([11]; against Enterobactericeae): more potent than dynobactin and has comparable potency to darobactin | MIC values ([11]; several carbapenamase-resistant Enterobacteriaceae (CRE)): 4 to 8 µg/mL | MIC [12]: 8 µg/mL (≈ 5.36 µM) | MIC [13]: 8 µg/mL (≈ 5.36 µM) | MIC [14]: 2 µg/mL (≈ 1.34 µM) | MIC [15]: >64 µg/mL | cytotoxicity: concentration up to which no cytotoxicity was shown [16]: > 256 µg/mL | level at which resistance development halted ([17]; E. coli): 4 ×MIC | period over which resistance development occurred ([17]; E. coli): 6 to 8 days | MIC of strains obtained by serial passage [17, 19]: 32 µg/mL | resistance of strains obtained by serial passage [17, 19]: ~4 fold
